Measured values from paper PMC7367283, “A PIP2 substitute mediates voltage sensor-pore coupling in KCNQ activation” (Communications Biology, 2020).
“And” between values parts separate entries of the source, which are not always exact repeats. Identical values can stand only once.

Target: KCNQ1 (Homo sapiens, UniProt P51787)
Assay: Two-electrode voltage clamp of WT KCNQ1 expressed in Xenopus oocytes
Assay type: cell-based
Conditions: for Current: Fig. 3b; for G/Gmax Mean: Fig. 3c; for ΔV1/2 of activation induced by CP1: Fig. 3e dose response; for Time constants of deactivation: Fig. 3d, individual values
From the text: Complementary DNA (cDNA) encoding human KCNQ1 (UniProtKB/Swiss-Prot under accession no. P51787), KCNQ2 (O43526), KCNQ3 (O43525), KCNE1 (P15382), Kir1.1 (P48048), hERG (Q12809), KV4.2 (Q63881), NaV1.5 (Q14524), NaV β1 (Q07699), CaV1.2 (Q13936), CaV β1a (Q02641), CaV α2/δ1 (P54289), and HCN4 (Q9Y3Q4) were subcloned into oocyte expression vectors, respectively. Site-directed mutations of the KCNQ1 channel were all produced by overlap extension polymerase chain reaction (PCR) with high-fidelity Pfu polymerase (Stratagene, CA). The presence of the desired mutation was verified by sequencing the PCR-amplified regions. All the primer sequences used in this study are available in Supplementary Table 1. The complementary RNA (cRNA) of all these channels and mutations was transcribed in vitro with the T3, T7, or SP6 polymerase mMessage mMachine kit (Invitrogen, Thermo Fisher Scientific, MO). The use of Xenopus laevis to obtain oocytes was approved by the Washington University Animal Studies Committee (protocol #20190030). Oocytes were manually dispersed and digested with collagenase (0.5 mg/ml, Sigma-Aldrich, Saint Louis, MO) to remove the follicle cell layer. Stage V or VI oocytes were selected and injected with cRNAs (9.2 ng) of channel or mutations. Especially, to characterize IKs, a mix of cRNAs at a molar ratio 4:1 (KCNQ1:KCNE1) was injected. For KCNQ2/KCNQ3, the molar ratio was 1:1 (KCNQ2:KCNQ3). For sodium channels, a 3:1 molar ratio (β1:NaV1.5) and for calcium channels a weight ratio 1:1:1 (β1:α2/δ1:CaV1.2) was injected, respectively. Injected oocytes were incubated in ND96 solution containing (in mM) 96 NaCl, 2 KCl, 1.8 CaCl2, 1 MgCl2, and 5 HEPES, pH 7.6, supplemented with 2.5 mM Na pyruvate and 1% penicillin-streptomycin, at 18 °C for 3-7 days before recording. All electrophysiological recordings on oocytes and isolated ventricular cells were performed at room temperature (20-23 °C). The whole-oocyte ionic currents were recorded with a GeneClamp 500B amplifier (Axon Instruments, CA) or iTEV90 amplifier (HEKA, Germany) and then sampled at 1 kHz and low-pass-filtered at 2 kHz. The Patchmaster software (HEKA, Germany) was used to acquire data. The Kir1.1 current was recorded with a high K^+ bath solution containing (in mM) 96 KCl, 4 NaCl, 1 CaCl2, 2 MgCl2, and 10 HEPES, pH 7.3-7.4. The HCN4 current was recorded in ND66 solution containing (in mM) 66 NaCl, 32 KCl, 1.8 CaCl2, 1 MgCl2, and 5 HEPES, pH 7.6. All the other potassium channels were recorded in ND96 solution. The currents of CaV1.2 channel were recorded in 40 mM Ba^2+ bath solution containing (in mM) 40 Ba(OH)2, 50 TEA-OH, 2 KOH, and 5 HEPES, adjusted to pH 7.4 with methanesulfonic acid. […] All the chemicals were purchased from Sigma-Aldrich. To measure the I-V relations of the Kir1.1 channel, the test voltage was set from -100 to +60 mV for 1 s with 20-mV increments. […] The HCN4 currents were recorded by a test pulse between -30 and -140 mV in 10-mV step from a holding potential of -30 mV. For all the other potassium channels and CaV1.2 channel, the holding potential was -80 or -100 mV, and the test pulse was applied with 10-mV increment, which was followed with a repolarization pulse at -40 mV before returning to the holding potential. The durations of test and the repolarization pulse vary for different channels to allow the activation and deactivation of the channel to reach their steady states. Electrophysiology data were processed with IGOR (Wavemetrics, Lake Oswego, OR), Clampfit (Molecular Devices, Sunnyvale, CA), and SigmaPlot (SPSS, Inc., San Jose, CA). Normalized tail currents were plotted versus prepulse voltage and fitted with the Boltzmann function G = G0 + 1/(1 + exp(V - V1/2)/S), where G0 is the minimum conductance, V1/2 is the half-maximal voltage of activation, and S is the slope factor. […]

## O=S(=O)([O-])Oc1c(-c2sc3c(ccc4cccc(Cl)c43)c2OS(=O)(=O)[O-])[nH]c2ccc(Br)cc12.[Na+].[Na+] [CP1, DISODIUM 5-BROMO-2-[9-CHLORO-3-(SULFONATOOXY) NAPHTHO [1,2-B] THIEN-2-YL]-1H-INDOL-3-YL SULFATE]
10 µM CP1, Q1, at −10 mV, individual oocytes
  outward current (Icp1/Ictrl): 0.8052 and 0.8187 and 0.929 and 0.8224 and 0.7283
10 µM CP1, Q1, individual oocytes (Fig. 5c)
  ∆V1/2: 44.3815 mV and 57.8695 mV and 53.8703 mV and 54.2596 mV and 54.8585 mV
10 µM CP1, WT, individual oocytes
  ∆V1/2: 47.2416 mV and 59.5412 mV and 44.3815 mV and 57.8695 mV and 53.8703 mV and 54.2596 mV and 54.8585 mV and 51.8892 mV and 58.8475 mV and 52.7212 mV and 56.3253 mV
10 µM CP1 treated, Q1, individual oocytes
  τ deact at -120 mV: 1.3301 s and 1.9909 s and 0.8395 s and 0.9034 s and 1.9351 s and 1.4782 s and 1.0081 s
10 µM CP1, 0 mV
  Current: 3.7050 µA
  G/Gmax Mean: 0.9915
10 µM CP1, 10 mV
  Current: 4.0550 µA
  G/Gmax Mean: 0.9924
10 µM CP1, 20 mV
  Current: 4.3975 µA
10 µM CP1, 30 mV
  Current: 4.6856 µA
10 µM CP1, 40 mV
  Current: 4.8369 µA
10 µM CP1, -10 mV
  Current: 3.2725 µA
  G/Gmax Mean: 1.0000
10 µM CP1, -20 mV
  Current: 2.9419 µA
  G/Gmax Mean: 0.9950
10 µM CP1, -30 mV
  Current: 2.4731 µA
  G/Gmax Mean: 0.9789
10 µM CP1, -40 mV
  Current: 1.9956 µA
  G/Gmax Mean: 0.9526
10 µM CP1, -50 mV
  Current: 1.5250 µA
  G/Gmax Mean: 0.9082
10 µM CP1, -60 mV
  Current: 1.0387 µA
  G/Gmax Mean: 0.8392
10 µM CP1, -70 mV
  Current: 0.5337 µA
  G/Gmax Mean: 0.7434
10 µM CP1, -80 mV
  Current: 0.1319 µA
  G/Gmax Mean: 0.6159
10 µM CP1, -90 mV
  Current: -0.1563 µA
  G/Gmax Mean: 0.4868
  Time constants of deactivation: 3656.5 ms and 3430.6 ms and 3945.9 ms and 3244.2 ms
10 µM CP1, -100 mV
  Current: -0.3112 µA
  G/Gmax Mean: 0.3712
  Time constants of deactivation: 3169.0 ms and 2901.8 ms and 2335.0 ms and 2809.3 ms and 2214.2 ms
10 µM CP1, -110 mV
  Current: -0.3831 µA
  G/Gmax Mean: 0.2836
  Time constants of deactivation: 1447.9 ms and 2103.3 ms and 1665.7 ms and 1887.0 ms and 1619.5 ms
10 µM CP1, -120 mV
  Current: -0.4494 µA
  G/Gmax Mean: 0.2306
  Time constants of deactivation: 823.6 ms and 1460.2 ms and 1255.8 ms and 1290.8 ms and 1343.2 ms
1 µM CP1, individual values
  ΔV1/2 of activation induced by CP1: 10.5419 and 2.1756 and 5.0919
2 µM CP1, individual values
  ΔV1/2 of activation induced by CP1: 12.1917 and 9.8070 and 18.4095 and 22.1605 and 21.9879 and 9.1767 and 12.7137
5 µM CP1, individual values
  ΔV1/2 of activation induced by CP1: 24.5897 and 25.8044 and 18.4530 and 34.4519 and 16.0115 and 11.0322
10 µM CP1, individual values
  ΔV1/2 of activation induced by CP1: 47.2416 and 73.6056 and 59.5412 and 44.3815 and 57.8695 and 53.8703 and 54.2596 and 54.8585 and 51.8892 and 58.8475 and 52.7212 and 56.3253
25 µM CP1, individual values
  ΔV1/2 of activation induced by CP1: 80.4973 and 70.5486 and 58.5444
50 µM CP1, individual values
  ΔV1/2 of activation induced by CP1: 90.4999 and 79.3797 and 90.4855
KCNQ1 expressed alone in oocytes, Hill fit, read-out: EC50 of G–V shift (ΔV1/2 of activation) versus CP1 concentration
  EC50: 8.73 ± 0.68 µM
Supplementary Fig. 2
  ion selectivity of KCNQ1 channels: does not alter the ion selectivity
WT, 10 µM CP1, -20 mV
  G/Gmax: 1.0000
WT, 10 µM CP1, -30 mV
  G/Gmax: 0.9911
WT, 10 µM CP1, -40 mV
  G/Gmax: 0.9627
WT, 10 µM CP1, -50 mV
  G/Gmax: 0.9093
WT, 10 µM CP1, -60 mV
  G/Gmax: 0.8189
WT, 10 µM CP1, -70 mV
  G/Gmax: 0.6709
WT, 10 µM CP1, -80 mV
  G/Gmax: 0.4831
WT, 10 µM CP1, -90 mV
  G/Gmax: 0.2996
WT, 10 µM CP1, -100 mV
  G/Gmax: 0.1522
WT, 10 µM CP1, -110 mV
  G/Gmax: 0.0549
WT, 10 µM CP1, -120 mV
  G/Gmax: 0.0000
